One block for each molecule: values may come before it.
Key:
[1] = The drug is tested on Bifidobacterium longum subsp. Infantis strain: CCUG52486 for biotransformation. The drug concentrations were measured before and after a 12-h incubation by liquid-chromatography-coupled mass spectrometry (LC–MS); settings: 2 µM
[2] = The drug is tested on Bacteroides pectinophilus strain: ATCC43243 for biotransformation. The drug concentrations were measured before and after a 12-h incubation by liquid-chromatography-coupled mass spectrometry (LC–MS); settings: 2 µM
[3] = victivallis vadensis, 12 h, 2 µM
[4] = biological target: T1, Acyltransferase 3 domain-containing protein (Phocaeicola dorei, UniProt B6W2J3); assay: (§1) The drug is tested on Bacteroides dorei strain: DSM17855 for biotransformation. The drug concentrations were measured before and after a 12-h incubation by liquid-chromatography-coupled mass spectrometry (LC–MS); format: ADME; parameters: dose 2 uM; settings: 2 µM
T1 sequence (B6W2J3 whole entry): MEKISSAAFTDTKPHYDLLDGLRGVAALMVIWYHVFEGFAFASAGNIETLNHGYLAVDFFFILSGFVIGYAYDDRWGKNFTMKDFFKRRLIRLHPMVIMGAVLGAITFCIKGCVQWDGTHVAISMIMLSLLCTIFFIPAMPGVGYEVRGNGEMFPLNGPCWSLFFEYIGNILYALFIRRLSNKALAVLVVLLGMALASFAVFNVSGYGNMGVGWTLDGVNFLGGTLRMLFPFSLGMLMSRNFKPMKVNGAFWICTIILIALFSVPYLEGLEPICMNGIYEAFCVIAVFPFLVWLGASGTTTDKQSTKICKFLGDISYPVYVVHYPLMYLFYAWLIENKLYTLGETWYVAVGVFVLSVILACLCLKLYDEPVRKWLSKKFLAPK

[5] = biological target: T2, Esterase (Phocaeicola dorei, UniProt B6W2J6); assay: as §1; format: ADME; parameters: dose 2 uM; settings: 2 µM
T2 sequence (B6W2J6 whole entry): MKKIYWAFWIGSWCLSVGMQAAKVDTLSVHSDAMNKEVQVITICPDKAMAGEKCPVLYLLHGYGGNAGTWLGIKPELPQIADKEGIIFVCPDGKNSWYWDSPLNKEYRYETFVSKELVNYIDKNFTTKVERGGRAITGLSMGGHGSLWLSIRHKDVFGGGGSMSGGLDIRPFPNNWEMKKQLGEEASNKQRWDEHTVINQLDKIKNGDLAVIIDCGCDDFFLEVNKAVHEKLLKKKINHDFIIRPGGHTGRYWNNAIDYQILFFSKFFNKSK

[6] = biological target: T3, Steroid 5-alpha reductase C-terminal domain-containing protein (Phocaeicola dorei, UniProt B6W0N3); assay: as §1; format: ADME; parameters: dose 2 uM; settings: 2 µM
T3 sequence (B6W0N3 whole entry): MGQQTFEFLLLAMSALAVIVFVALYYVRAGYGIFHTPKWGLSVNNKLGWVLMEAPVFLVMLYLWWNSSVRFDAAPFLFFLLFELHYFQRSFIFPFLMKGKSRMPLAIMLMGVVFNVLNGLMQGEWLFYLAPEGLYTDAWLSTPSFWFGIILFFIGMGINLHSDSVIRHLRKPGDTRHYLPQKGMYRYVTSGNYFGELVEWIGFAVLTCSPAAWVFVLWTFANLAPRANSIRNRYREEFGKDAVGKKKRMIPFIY

[7] = biological target: T4, Nitroreductase domain-containing protein (Phocaeicola dorei, UniProt B6VU18); assay: as §1; format: ADME; parameters: dose 2 uM; settings: 2 µM
T4 sequence (B6VU18 whole entry): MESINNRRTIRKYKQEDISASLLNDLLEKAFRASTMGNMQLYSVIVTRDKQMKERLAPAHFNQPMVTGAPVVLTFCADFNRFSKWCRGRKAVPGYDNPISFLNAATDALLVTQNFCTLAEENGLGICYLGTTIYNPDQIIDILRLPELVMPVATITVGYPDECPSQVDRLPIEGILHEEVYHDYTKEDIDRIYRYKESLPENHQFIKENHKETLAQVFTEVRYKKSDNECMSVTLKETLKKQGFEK

[8] = biological target: T5, Nitroreductase domain-containing protein (Phocaeicola dorei, UniProt B6W3P3); assay: as §1; format: ADME; parameters: dose 2 uM; settings: 2 µM
T5 sequence (B6W3P3 whole entry): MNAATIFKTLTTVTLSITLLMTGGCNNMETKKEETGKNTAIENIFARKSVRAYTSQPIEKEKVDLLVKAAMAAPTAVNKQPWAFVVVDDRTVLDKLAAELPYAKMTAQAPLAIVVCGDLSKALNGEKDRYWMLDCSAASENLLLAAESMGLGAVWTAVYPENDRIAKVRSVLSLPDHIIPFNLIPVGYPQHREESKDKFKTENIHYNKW

[9] = biological target: T6, Lipoprotein (Bacteroides thetaiotaomicron, UniProt Q8A343); assay: The drug is tested on Bacteroides thetaiotaomicron strain: VPI-5482 for biotransformation. The drug concentrations were measured before and after a 12-h incubation by liquid-chromatography-coupled mass spectrometry (LC–MS); format: ADME; parameters: dose 2 uM; settings: 2 µM
T6 sequence (Q8A343 whole entry): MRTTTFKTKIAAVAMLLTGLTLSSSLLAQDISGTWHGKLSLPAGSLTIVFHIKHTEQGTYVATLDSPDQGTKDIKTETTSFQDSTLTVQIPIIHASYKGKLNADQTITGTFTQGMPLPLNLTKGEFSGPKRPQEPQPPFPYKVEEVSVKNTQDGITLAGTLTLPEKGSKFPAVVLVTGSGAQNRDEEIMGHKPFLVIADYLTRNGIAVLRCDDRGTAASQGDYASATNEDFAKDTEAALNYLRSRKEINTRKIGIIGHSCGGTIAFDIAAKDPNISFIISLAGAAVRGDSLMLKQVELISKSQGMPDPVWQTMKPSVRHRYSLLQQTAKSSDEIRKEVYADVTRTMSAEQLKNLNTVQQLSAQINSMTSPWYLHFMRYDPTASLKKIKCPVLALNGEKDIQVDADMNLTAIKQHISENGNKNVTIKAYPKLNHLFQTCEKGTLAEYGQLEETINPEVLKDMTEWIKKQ

[10] = bacteroides thetaiotaomicron, 12 h, 2 µM
[11] = enterocloster bolteae, 12 h, 2 µM
[12] = akkermansia muciniphila, 12 h, 2 µM
[13] = The drug is tested on Eubacterium biforme strain: DSM3989 for biotransformation. The drug concentrations were measured before and after a 12-h incubation by liquid-chromatography-coupled mass spectrometry (LC–MS); settings: holdemanella biformis, 2 µM
[14] = The drug is tested on Eggerthella lenta strain: ATCC25559 for biotransformation. The drug concentrations were measured before and after a 12-h incubation by liquid-chromatography-coupled mass spectrometry (LC–MS); settings: 2 µM

Compound: CC(=O)OCC(=O)[C@@]1(OC(C)=O)[C@@H](C)C[C@H]2[C@@H]3C[C@H](F)C4=CC(=O)C=C[C@]4(C)[C@@]3(F)[C@@H](O)C[C@@]21C [DIFLORASONE DIACETATE]
Bacterial Biotransformation [1]: Compound metabolized
Bacterial Biotransformation [2]: Compound NOT metabolized
Bacterial Biotransformation [3]: Compound metabolized
Bacterial Biotransformation [4]: Compound NOT metabolized
Bacterial Biotransformation [5]: Compound NOT metabolized
Bacterial Biotransformation [6]: Compound NOT metabolized
Bacterial Biotransformation [7]: Compound NOT metabolized
Bacterial Biotransformation [8]: Compound NOT metabolized
Bacterial Biotransformation [9]: Compound NOT metabolized
Bacterial Biotransformation [10]: Compound metabolized
Bacterial Biotransformation [11]: Compound metabolized
Bacterial Biotransformation [12]: Compound metabolized

Compound: CNCC[C@H](Oc1cccc2ccccc12)c1cccs1 [DULOXETINE]
Bacterial Biotransformation [1]: Compound NOT metabolized
Bacterial Biotransformation [2]: Compound NOT metabolized
Bacterial Biotransformation [3]: Compound NOT metabolized
Bacterial Biotransformation [10]: Compound NOT metabolized
Bacterial Biotransformation [13]: Compound NOT metabolized
Bacterial Biotransformation [11]: Compound NOT metabolized
Bacterial Biotransformation [14]: Compound NOT metabolized
Bacterial Biotransformation [12]: Compound metabolized

Compound: CC(C)(C(=O)O)c1ccc(C(O)CCCN2CCC(C(O)(c3ccccc3)c3ccccc3)CC2)cc1 (stereo unspecified) [FEXOFENADINE]
Bacterial Biotransformation [1]: Compound NOT metabolized
Bacterial Biotransformation [2]: Compound NOT metabolized
Bacterial Biotransformation [10]: Compound NOT metabolized
Bacterial Biotransformation [13]: Compound NOT metabolized
Bacterial Biotransformation [11]: Compound NOT metabolized
Bacterial Biotransformation [12]: Compound NOT metabolized

Compound: O=C(CCCN1CCC(O)(c2ccc(Cl)cc2)CC1)c1ccc(F)cc1 [HALOPERIDOL]
Bacterial Biotransformation [1]: Compound NOT metabolized
Bacterial Biotransformation [2]: Compound NOT metabolized
Bacterial Biotransformation [10]: Compound NOT metabolized
Bacterial Biotransformation [13]: Compound NOT metabolized
Bacterial Biotransformation [11]: Compound NOT metabolized
Bacterial Biotransformation [12]: Compound NOT metabolized

Compound: Cc1ccc(NC(=O)c2ccc(CN3CCN(C)CC3)cc2)cc1Nc1nccc(-c2cccnc2)n1 [IMATINIB]
Bacterial Biotransformation [10]: Compound NOT metabolized
Bacterial Biotransformation [13]: Compound NOT metabolized
Bacterial Biotransformation [11]: Compound NOT metabolized
Bacterial Biotransformation [14]: Compound NOT metabolized
Bacterial Biotransformation [12]: Compound NOT metabolized

More lines, now with the values ahead:

Bacterial Biotransformation [2]: Compound NOT metabolized
Bacterial Biotransformation [4]: Compound NOT metabolized
Bacterial Biotransformation [5]: Compound NOT metabolized
Bacterial Biotransformation [6]: Compound metabolized
Bacterial Biotransformation [7]: Compound NOT metabolized
Bacterial Biotransformation [8]: Compound NOT metabolized
Bacterial Biotransformation [9]: Compound NOT metabolized
Bacterial Biotransformation [11]: Compound NOT metabolized
Bacterial Biotransformation [14]: Compound NOT metabolized
Bacterial Biotransformation [12]: Compound NOT metabolized
Compound: C#C[C@]1(O)CC[C@H]2[C@@H]3CCC4=CC(=O)CC[C@@H]4[C@H]3CC[C@@]21CC [LEVONORGESTREL]

Bacterial Biotransformation [1]: Compound NOT metabolized
Bacterial Biotransformation [2]: Compound NOT metabolized
Bacterial Biotransformation [3]: Compound NOT metabolized
Bacterial Biotransformation [10]: Compound metabolized
Bacterial Biotransformation [13]: Compound NOT metabolized
Bacterial Biotransformation [11]: Compound NOT metabolized
Bacterial Biotransformation [12]: Compound NOT metabolized
Compound: COC(=O)Nc1nc2ccc(C(=O)c3ccccc3)cc2[nH]1 [MEBENDAZOLE]

Bacterial Biotransformation [1]: Compound NOT metabolized
Bacterial Biotransformation [2]: Compound NOT metabolized
Bacterial Biotransformation [3]: Compound NOT metabolized
Bacterial Biotransformation [10]: Compound NOT metabolized
Bacterial Biotransformation [11]: Compound NOT metabolized
Bacterial Biotransformation [14]: Compound NOT metabolized
Bacterial Biotransformation [12]: Compound NOT metabolized
Compound: COc1ccc2cc([C@H](C)C(=O)O)ccc2c1 [NAPROXEN]

Bacterial Biotransformation [1]: Compound NOT metabolized
Bacterial Biotransformation [2]: Compound NOT metabolized
Bacterial Biotransformation [3]: Compound NOT metabolized
Bacterial Biotransformation [10]: Compound NOT metabolized
Bacterial Biotransformation [11]: Compound NOT metabolized
Bacterial Biotransformation [14]: Compound NOT metabolized
Bacterial Biotransformation [12]: Compound NOT metabolized
Compound: CCc1nn(CCCN2CCN(c3cccc(Cl)c3)CC2)c(=O)n1CCOc1ccccc1 [NEFAZODONE]

Bacterial Biotransformation [1]: Compound NOT metabolized
Bacterial Biotransformation [3]: Compound NOT metabolized
Bacterial Biotransformation [4]: Compound NOT metabolized
Bacterial Biotransformation [5]: Compound NOT metabolized
Bacterial Biotransformation [6]: Compound metabolized
Bacterial Biotransformation [7]: Compound NOT metabolized
Bacterial Biotransformation [8]: Compound NOT metabolized
Bacterial Biotransformation [9]: Compound NOT metabolized
Bacterial Biotransformation [10]: Compound metabolized
Bacterial Biotransformation [11]: Compound metabolized
Bacterial Biotransformation [12]: Compound metabolized
Compound: C#C[C@]1(OC(C)=O)CC[C@H]2[C@@H]3CCC4=CC(=O)CC[C@@H]4[C@H]3CC[C@@]21C [NORETHINDRONE ACETATE]

Bacterial Biotransformation [1]: Compound NOT metabolized
Bacterial Biotransformation [2]: Compound NOT metabolized
Bacterial Biotransformation [3]: Compound NOT metabolized
Bacterial Biotransformation [10]: Compound NOT metabolized
Bacterial Biotransformation [13]: Compound metabolized
Bacterial Biotransformation [11]: Compound NOT metabolized
Bacterial Biotransformation [14]: Compound metabolized
Compound: C#C[C@]1(OC(C)=O)CC[C@H]2[C@@H]3CCC4=C/C(=N/O)CC[C@@H]4[C@H]3CC[C@@]21CC [NORGESTIMATE]
